The conditions of this series: alkaline pH versus neutral and acidic pH.

As for `O=C([O-])CN(CCN(CC(=O)[O-])CC(=O)[O-])CC(=O)[O-].[Ag+].[Ag+].[Zn+2]` [Ag2Zn(EDTA)], the “stability of the active ingredient-containing solution (precipitation)” value is “can be stabilized by an alkaline pH”.

The record behind these values is US20260041811A1, “HYDROGEL FOR THE REDUCTION OF BIOFILMS” (PAUL HARTMANN AG, priority 2022, published 2026).
